Structures can show the parent of a compound that is named as a salt. Where two headings read alike, the source gives them in different places.
Key:
PTP1B = molecular target: T1, PTP1B (Homo sapiens, UniProt P18031); experiment: PTP Enzyme Assay (DiFMUP), PTP1B; type: biochemical; conditions: 5 μM DiFMUP, catalytic core of human recombinant PTP; read-out: IC50 value in respect of PTP1B
T1 construct: using the catalytic core of a human recombinant PTP as the enzyme; made in house
T1 sequence (P18031 3-277 limits assumed): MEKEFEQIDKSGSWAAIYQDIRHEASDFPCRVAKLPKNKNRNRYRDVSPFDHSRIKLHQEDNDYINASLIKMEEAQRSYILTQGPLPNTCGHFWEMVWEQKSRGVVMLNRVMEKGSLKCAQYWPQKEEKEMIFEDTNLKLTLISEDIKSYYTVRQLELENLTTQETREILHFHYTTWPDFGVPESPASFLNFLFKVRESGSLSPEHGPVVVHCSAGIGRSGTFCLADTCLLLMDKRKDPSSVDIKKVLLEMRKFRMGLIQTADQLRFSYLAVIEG
Protocol: (§1) The PTP Enzyme Assay aims at determining the extent of inhibition of PTP's, e.g. of PTP1B, SEP-1, SHP-2, GLEPP-1 or PTP-H1 in the presence of a test compound of lo formula (I). The inhibition is illustrated by IC50 values which denote the concentration of test compound necessary to achieve an inhibition of 50% of said PTP's using the following concentration of the PTP substrate DiFMUP: • 5 μM DiFMUP for PTP1B and PTP-H1; • 20 μM DiFMUP for SHP-1 and SHP-2; • 30 μM DiFMUP for GLEPP-1. a) PTPs Cloning
The cloning and expression of the catalytic domain e.g. of PTP1B, may be performed as described in J. Biol. Chem. 2000, 275(13), pp 9792-9796.
(§2) The DiFMUP assay allows to follow the dephosphorylation of DiFMUP (6,8-DiFluoro-4-MethylUmbelliferyl Phosphate)—which is the PTP substrate—mediated by PTP into its stable hydrolysis product, i.e. DiFMU (6,8-difluoro-7-hydroxy coumarin). Due to its rather low pKa and its high quantum yield, DiFMU allows to measure both acidic and alkaline phosphatase activities with a great sensitivity.
(§3) Assays were performed in a 96 well plate format, using the catalytic core of a human recombinant PTP as the enzyme and 6,8-DiFluoro-4-MethylUmbelliferyl Phosphate (DiFMUP, Molecular Probes, D-6567) as a substrate. Compounds to be tested were dissolved in 100% DMSO at a concentration of 2 mM. Subsequent dilutions of the test compounds (to yield a concentration of 100, 30, 10, 3, 1,0.3, 0.1, 0.03, 0.01, 0.001 μM) were performed in 60% DMSO manually. 8 μl of diluted compound or vehicle (60% DMSO=control) was distributed to a black Costar 96 well plate. […] The reaction ran for 30 minutes at room temperature before reading the fluorescence intensity (integral or intensity) on a Perkin-Elmer Victor 2 spectrofluorimeter (excitation of 6,8-difluoro-7-hydroxy coumarin is at 355 nm, the emission at 460 nm, for 0.1 s). The percentage of inhibition is determined by measuring the relative fluorescence ion absence of a test compound (PTP inhibitor), i.e. with the solvent alone (5% DMSO). The IC50 values for inhibition were determined in triplicates.

GLEPP-1 = molecular target: T2, GLEPP-1 (Homo sapiens, UniProt Q16827); experiment: PTP Enzyme Assay (DiFMUP), GLEPP-1; type: biochemical
T2 construct: using the catalytic core of a human recombinant PTP as the enzyme; made in house
T2 sequence (Q16827 938-1195 limits assumed): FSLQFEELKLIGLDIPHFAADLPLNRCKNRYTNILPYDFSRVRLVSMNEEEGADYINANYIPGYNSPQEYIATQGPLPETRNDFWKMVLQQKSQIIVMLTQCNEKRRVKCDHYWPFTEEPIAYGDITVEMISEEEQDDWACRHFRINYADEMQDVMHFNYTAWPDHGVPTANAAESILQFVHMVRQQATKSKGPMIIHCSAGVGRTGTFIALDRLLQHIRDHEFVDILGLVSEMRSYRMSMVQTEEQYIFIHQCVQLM
Text: The PTP Enzyme Assay aims at determining the extent of inhibition of PTP's, e.g. of PTP1B, SEP-1, SHP-2, GLEPP-1 or PTP-H1 in the presence of a test compound of lo formula (I).
as §2
Compounds to be tested were dissolved in 100% DMSO at a concentration of 2 mM. Subsequent dilutions of the test compounds (to yield a concentration of 100, 30, 10, 3, 1,0.3, 0.1, 0.03, 0.01, 0.001 μM) were performed in 60% DMSO manually. 8 μl of diluted compound or vehicle (60% DMSO=control) was distributed to a black Costar 96 well plate. 42 μl of human recombinant PTP enzyme diluted in assay buffer (20 mM Tris HCl pH 7.5, 0.01% IGEPAL CA-630, 0.1 mM ethylenediaminetetracetic acid, 1 mM DL-Dithiothreitol) can be added to the dilutions of compound or vehicule (distributed to a black Costar 96-well plate), followed by 50 μl of DiFMUP diluted in the assay buffer. The reaction ran for 30 minutes at room temperature before reading the fluorescence intensity (integral or intensity) on a Perkin-Elmer Victor 2 spectrofluorimeter (excitation of 6,8-difluoro-7-hydroxy coumarin is at 355 nm, the emission at 460 nm, for 0.1 s). The percentage of inhibition is determined by measuring the relative fluorescence ion absence of a test compound (PTP inhibitor), i.e. with the solvent alone (5% DMSO). The IC50 values for inhibition were determined in triplicates.

db/db mice = experiment: In vivo assay in db/db mice (postprandial glycemia); conditions: 30 mg/kg per os, 4 hrs after drug administration, percentage of control (group 1: vehicle treated mice)
Protocol: The following assay aims at determining the anti-diabetic effect of the test compounds of formula (I) in a model of postprandial glycemia in db/db mice, in vivo.
The assay was performed as follows:
A total of 18 db/db mice (about 8-9 weeks; obtained from IFFACREDO, l'Arbreste, France) were fasted during 20 hours.
2 groups, each consisting of 6 animals were formed: • Group 1: The animals were administered (per os) a dose of 10 mL/kg of vehicle (control). • Group 2: The animals were administered (per os) a dose of 30 mg/kg of the test compound according to formula (I) solubilized in the vehicle.
After oral administration of the compounds of formula (I) solubilized or suspended in CarboxyMethylCellulose (0.5%), Tween 20 (0.25%) and water as vehicle, the animals had access to conmnercial food (D04, UAR, Villeinoisson/Orge, France) ad libitum. The diabetic state of the mice was verified by determining the blood glucose level before drug administration. Blood glucose and serum insulin levels were then determined 4 hrs after drug administration.
The determination of the blood glucose level was performed using a glucometer (Precision Q.I.D., Medisense, Abbot, ref. 212.62.31).
The determination of the Insulin level was performed using an ELISA kit (Crystal CHEM, Ref. INSK R020).
Changes in blood glucose and serum insulin of drug treated mice were expressed as a percentage of control (group 1: vehicle treated mice).

PTP-H1 = molecular target: T3, PTP-H1 (Homo sapiens, UniProt P26045); experiment: PTP Enzyme Assay (DiFMUP), PTP-H1; type: biochemical; conditions: 5 μM DiFMUP, catalytic core of human recombinant PTP; read-out: IC50 value in respect of PTP-H1
T3 construct: using the catalytic core of a human recombinant PTP as the enzyme; made in house
T3 sequence (P26045 646-901 limits assumed): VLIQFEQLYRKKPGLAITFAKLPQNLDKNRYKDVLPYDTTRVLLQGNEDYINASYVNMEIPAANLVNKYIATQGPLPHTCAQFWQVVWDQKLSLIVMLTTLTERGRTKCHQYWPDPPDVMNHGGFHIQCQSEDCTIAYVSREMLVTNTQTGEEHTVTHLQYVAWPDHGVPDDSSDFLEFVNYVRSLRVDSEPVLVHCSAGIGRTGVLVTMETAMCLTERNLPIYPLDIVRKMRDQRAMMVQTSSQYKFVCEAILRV
Protocol: as §1, with “Cloning […]” for “Cloning”
as §3, with “substrate.” for “substrate. Compounds to be tested were dissolved in 100% DMSO at a concentration of 2 mM. Subsequent dilutions of the test compounds (to yield a concentration of 100, 30, 10, 3, 1,0.3, 0.1, 0.03, 0.01, 0.001 μM) were performed in 60% DMSO manually. 8 μl of diluted compound or vehicle (60% DMSO=control) was distributed to a black Costar 96 well plate.”

SHP-2 = molecular target: T4, SHP-2 (Homo sapiens, UniProt Q06124); experiment: PTP Enzyme Assay (DiFMUP), SHP-2; type: biochemical; conditions: 20 μM DiFMUP, catalytic core of human recombinant PTP; read-out: IC50 value in respect of SHP-2
T4 construct: using the catalytic core of a human recombinant PTP as the enzyme; made in house
T4 sequence (Q06124 247-517 limits assumed): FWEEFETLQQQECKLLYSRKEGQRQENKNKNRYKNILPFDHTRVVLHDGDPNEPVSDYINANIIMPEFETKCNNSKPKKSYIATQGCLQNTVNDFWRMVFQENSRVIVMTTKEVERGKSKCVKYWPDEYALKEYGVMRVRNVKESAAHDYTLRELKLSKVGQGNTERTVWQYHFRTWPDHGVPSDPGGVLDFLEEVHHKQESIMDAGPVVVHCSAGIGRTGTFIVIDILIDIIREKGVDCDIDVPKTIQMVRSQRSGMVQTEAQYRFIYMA
Protocol: as §1, with “Cloning […]” for “Cloning”
as §3, with “substrate.” for “substrate. Compounds to be tested were dissolved in 100% DMSO at a concentration of 2 mM. Subsequent dilutions of the test compounds (to yield a concentration of 100, 30, 10, 3, 1,0.3, 0.1, 0.03, 0.01, 0.001 μM) were performed in 60% DMSO manually. 8 μl of diluted compound or vehicle (60% DMSO=control) was distributed to a black Costar 96 well plate.”

SHP-1 = molecular target: T5, SHP-1 (Homo sapiens, UniProt P29350); experiment: PTP Enzyme Assay (DiFMUP), SHP-1; type: biochemical; conditions: 20 μM DiFMUP, catalytic core of human recombinant PTP; read-out: IC50 value in respect of SHP-1
T5 construct: using the catalytic core of a human recombinant PTP as the enzyme; made in house
T5 sequence (P29350 244-515 limits assumed): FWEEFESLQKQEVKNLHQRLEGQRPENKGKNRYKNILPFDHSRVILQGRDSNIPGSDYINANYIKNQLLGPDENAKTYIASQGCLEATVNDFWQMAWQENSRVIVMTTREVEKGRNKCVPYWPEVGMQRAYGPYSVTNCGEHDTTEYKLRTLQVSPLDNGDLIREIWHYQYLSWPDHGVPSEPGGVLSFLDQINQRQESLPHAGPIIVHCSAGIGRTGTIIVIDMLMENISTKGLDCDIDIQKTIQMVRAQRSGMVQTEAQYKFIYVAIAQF
Protocol: as §1, with “Cloning […]” for “Cloning”
as §3, with “substrate.” for “substrate. Compounds to be tested were dissolved in 100% DMSO at a concentration of 2 mM. Subsequent dilutions of the test compounds (to yield a concentration of 100, 30, 10, 3, 1,0.3, 0.1, 0.03, 0.01, 0.001 μM) were performed in 60% DMSO manually. 8 μl of diluted compound or vehicle (60% DMSO=control) was distributed to a black Costar 96 well plate.”

[1] = 30 μM DiFMUP, catalytic core of human recombinant PTP, read-out: IC50 value in respect of GLEPP-1

Compound | IC50 (PTP1B) [nM] | IC50 (GLEPP-1; [1]) [nM] | Decrease in blood glucose (db/db mice) [%] | Decrease in serum insulin (db/db mice) [%] | further results
CCCCc1ccc(C#Cc2ccc(CN(CCC(C)(C)C)c3ccc(F)c(C(=O)O)c3)cc2)cc1 [Example 35, 5-[{4-[(4-butylphenyl)ethynylbenzyl}(3,3-dimethylbutyl)amino]-2-fluorobenzoic acid, N-methyl-D-glucamine (i.e. 1-deoxy-1-(methylamino)glucitol)salt] | 80 | 210 |  |  | 
CCCCCCN(Cc1ccc(C#Cc2ccccc2)cc1)c1ccc(F)c(C(=O)O)c1 [Example 30, 2-fluoro-5-{hexyl[4-(phenylethynyl)benzyl]amino}benzoic acid, N-methyl-D-glucamine (i.e. 1-deoxy-1-(methylamino)glucitol) salt] | 800 |  |  |  | IC50 (GLEPP-1): 860 nM
CCCCCCN(C(=O)c1ccc(C#Cc2ccc(CCCC)cc2)cc1)c1ccc(F)c(C(=O)O)c1 [Example 55, 5-[{4-[(4-butylphenyl)ethynyl]benzoyl}(hexyl)amino]-2-fluorobenzoic acid, N-methyl-D-glucamine (i.e. 1-deoxy-1-(methylamino)glucitol)salt] |  |  | 46 | 75 | 
5-[(1-{4-[(4-butylphenyl)ethynyl]phenyl}pentyl)oxy]-2-hydroxybenzoic acid [Example 16] |  |  | 37 | 28 | 
CCCCCCN(Cc1ccc(C#Cc2ccc(CCCC)cc2)cc1)C(=O)c1ccc(O)c(C(=O)O)c1 [Example 19, 5-[{{4-[(4-butylphenyl)ethynyl]benzyl}(hexyl)amino]carbonyl}-2-hydroxybenzoic acid, N-methyl-D-glucamine (i.e. 1-deoxy-1-(methylamino)-glucitol) salt] |  |  | 20 | 43 | 
CCCCc1ccc(C#Cc2ccc(CN(Cc3ccc(OCC(=O)O)cc3)S(=O)(=O)/C=C/c3ccccc3)cc2)cc1 [Example 8, {4-[({4-[(4-butylphenyl)ethynyl]benzyl}{[(E)-2-phenylvinyl]sulfonyl}-amino)methyl]phenoxy}acetic acid] | 510 | 620 |  |  | IC50 (PTP-H1): 9640 nM; IC50 (SHP-2): 800 nM; IC50 (SHP-1): 820 nM

From US7947851B2, “1,1′-(1,2-ethynediyl)bis-benzene derivatives as PTP 1-B inhibitors” (Merck Serono SA, priority 2004, dated 2011)
